Patent US6608103B2, “Inhibitor for neovasculation, cell multiplication, lumen formation and FGF” (Fuji Chemical Industry Co., Ltd., priority 2001, dated 2003)
Entries after “also recorded” stand apart in the source; their conditions may differ.

Columns and labels:
Type in all cases: cell-based, bovine
BAEC [1] = assay: Inhibition against lumen formation induced by FGF; parameters: key to Lumen Formation: ↑: Accelerated; /: Tendency to increase; No change; ↓: Inhibited; ↓↓: Strongly inhibited; conditions: for Lumen Formation: summary
Protocol: (§1) Eight parts by volume of “Vitrogen Collagen” (Collagen Co.), 1 part by volume of 0.1 N NaOH and 1 part by volume of ×10 MEM (GIBCO BRL) were placed in a tube, and mixed quickly in an ice bath. The culture solution was removed by suction, and 0.5 ml/well of the above mixture containing collagen was pipetted into each well. The microplate was placed in a CO2 incubator for about 30 minutes to gelatinize it. 1.5 ml of a medium (MEM | 2% FBS) containing a sample was added, and continued to incubate while changing the medium every second day.
(§2) The variation of cells were observed by a microscope by taking a photograph, and lumen formation was evaluated by counting the number of branches of cells forming lumen.
The test was carried out similar to Examples 12-14, wherein FGF was added together with each tocotrienol. In the case of Control group E, no sample was added. […]

BAEC [2] = assay: Cell multiplication of BAEC, survival rate of cells using WST-1; conditions: for Survival Rate of Cells (% of control): 24 hours, WST-1; for IC50: determined from the graph of FIG. 1 (abscissa μM), read-out: median growth inhibition concentration (IC50)
Protocol: Influence of tocotrienols on cell multiplication of BAEC was examined in various concentrations. The cell multiplication was evaluated by determining the survival rate of cells using WST-1, which makes it possible to conduct high sensitivity measurement, instead of conventional MTT.
As a blank, the culture medium alone was incubated without adding cells. […] The microplate was taken out after 24 hours from placing the culture medium containing a sample. 10 μl/well of WST-1 solution was added to each well, and incubated in a CO2 incubator. After 3 hours, absorbance at 450 nm and 655 nm (dual) of each well was measured by a microplate reader.
The samples employed were DL-α-tocotrienol, DL-γ-tocotrienol and DL-δ-tocotrienol. In the case of Control group I, no sample was added.
The survival rate of cells was determined by the following formula:
Survival Rate of Cells=(S−B)/(C−B)×100(%)
The results of Table 10 were made in a graph shown in FIG. 1, and median growth inhibition concentration (IC50) was determined from the graph. In the figure, the numbers on the ordinate indicate the survival rate of cells (% of control), and the numbers on the abscissa indicate concentration (μM). ● is DL-α-tocotrienol, ▪ is DL-β-tocotrienol, Δ is DL-γ-tocotrienol, and X is DL-δ-tocotrienol, respectively.

BAEC [3] = assay: Effects of tocotrienols on multiplication of BAEC, MTT assay; conditions: for Absorbance: MTT; for inhibitory action against cell multiplication: Table 1
Protocol: Normal bovine aortic endothelial cells (BAEC) were manufactured by Cell Systems Co., and purchased through Dainippon Seiyaku Co., Ltd.
A cell suspension was prepared by adding the cells to MEM (Sigma Chemical Co.) containing 10 v/v (%) fetal bovine serum (FBS), 20 IU/ml penicillin and 20 IU/ml streptomycin (MEM+10% FBS) in a concentration of 1×10^5 cells/ml, and cultured in a 5% CO2 incubator at 37° C. by using a 60 mm dish coated with type I collagen with subculturing every 2 to 3 days.
Each of the above samples was added to MEM containing 2% (v/v) FBS, 20 IU/ml penicillin and 20 IU/ml streptomycin (MEM+2% FBS), and subjected to testing.
Effects of tocotrienols on the multiplication of BAEC were examined by using MTT assay.
(§3) Each one microplate was taken out after 0, 24, 48 or 96 hours from placing the culture medium containing a sample. In the case of the microplate taken out after 96 hours, the culture medium was once changed after 48 hours. 3 mg/ml MTT solution PBS (−) was put in each well in an amount of 50 μl/well, and incubated for 3 hours in a CO2 incubator. After filling each well with phosphate buffered saline (PBS(−)), liquid in each well was evacuated, and isopropyl alcohol containing 0.04 mol/l HCL was put in each well in an amount of 200 μl/well. The microplates were allowed to stand overnight in a dark place, and then, absorbance at 595 nm and 655 nm (dual) was measured by a microplate reader.
In the case of Control group A, no sample was added.

BAEC [4] = assay: Neovasculation / lumen formation of BAEC between two layers of type I collagen gel
Protocol: BAEC was cultured between two layers of type I collagen gel, and a lumen-like netting structure formed therebetween was evaluated.
as §1, §2
The inhibition test against lumen formation was carried out in the same manner as Example 15, except that α-tocopherol was substituted for DL-α-tocotrienol.

BAEC [5] = assay: Inhibitory action against FGF activity, MTT assay on BAEC with FGF 20 ng/ml; parameters: key to Cell Multiplication: ↑: Accelerated; /: Tendency to increase; No change; ↓: Inhibited; ↓↓: Strongly inhibited; conditions: for Absorbance: MTT; for Cell Multiplication: summary
Protocol: The fibroblast growth factor sample was prepared by dissolving a commercial FGF (Sigma Chemical Co.) in MEM (Sigma Chemical Co.)
as §3
In the case of Control group B, no sample was added.

[6] = FGF (20 ng/ml) + sample (10 μM)
[7] = 0 hr, FGF 20 ng/ml + sample 10 μM
[8] = 24 hrs, FGF 20 ng/ml + sample 10 μM
[9] = 48 hrs, FGF 20 ng/ml + sample 10 μM
[10] = 96 hrs, FGF 20 ng/ml + sample 10 μM
[11] = FGF (20 ng/ml) + sample (100 μM)

| SMILES | inhibition of lumen formation induced by FGF (BAEC [1]; 10 μM + FGF 20 ng/ml) | Number of Cells Forming Lumen/cm^2 (BAEC [1]; sample 10 μM + FGF 20 ng/ml) | Lumen Formation (BAEC [1]; [6]) | IC50 (BAEC [2]) [µM] | Absorbance (BAEC [3]; 0 hr, sample 10 μM) | Absorbance (BAEC [3]; 24 hrs, sample 10 μM) | Absorbance (BAEC [3]; 48 hrs, sample 10 μM) | Absorbance (BAEC [3]; 96 hrs, sample 10 μM) | inhibition of lumen formation (BAEC [4]; 10 μM) | Number of Cells Forming Lumen/cm^2 (BAEC [4]; Table 4, 10 μM) | Absorbance (BAEC [5]; [7]) | Absorbance (BAEC [5]; [8]) | Absorbance (BAEC [5]; [9]) | Absorbance (BAEC [5]; [10]) | Cell Multiplication (BAEC [5]; [6]) | Survival Rate of Cells (% of control) (BAEC [2]; 2 μM) | Survival Rate of Cells (% of control) (BAEC [2]; 4 μM) | Survival Rate of Cells (% of control) (BAEC [2]; 6 μM) | Survival Rate of Cells (% of control) (BAEC [2]; 8 μM) | Survival Rate of Cells (% of control) (BAEC [2]; 10 μM) | other results |
| --- | --- | --- | --- | --- | --- | --- | --- | --- | --- | --- | --- | --- | --- | --- | --- | --- | --- | --- | --- | --- | --- |
| CC(C)=CCC/C(C)=C/CC/C(C)=C/CC[C@]1(C)CCc2c(C)c(O)c(C)c(C)c2O1 (racemic) [DL-α-Tocotrienol, α-tocotrienol] | inhibited the lumen formation induced by FGF | 25.25 ± 1.55 /cm^2 | → | 38 | 0.090 ± 0.003 | 0.141 ± 0.008 | 0.271 ± 0.010 | 0.382 ± 0.014 | equivalent to the control group | 39.25 ± 1.84 /cm^2 | 0.044 ± 0.002 | 0.096 ± 0.004 | 0.290 ± 0.010 | 0.328 ± 0.018 | ↑ |  |  |  |  |  | Survival Rate of Cells (% of control) (BAEC [2]; 25 μM): 111.0 ± 6.8 % of control; Survival Rate of Cells (% of control) (BAEC [2]; 30 μM): 115.8 ± 9.2 % of control; Survival Rate of Cells (% of control) (BAEC [2]; 35 μM): 67.3 ± 11.6 % of control; Survival Rate of Cells (% of control) (BAEC [2]; 40 μM): 39.1 ± 12.7 % of control; Survival Rate of Cells (% of control) (BAEC [2]; 45 μM): 6.9 ± 5.9 % of control; inhibition of lumen formation (BAEC [4]; 50 μM): completely inhibited formation; Number of Cells Forming Lumen/cm^2 (BAEC [4]; Table 4, 30 μM): 31.75 ± 1.25 /cm^2; Number of Cells Forming Lumen/cm^2 (BAEC [4]; Table 4, 50 μM): 0.00 ± 0.00 /cm^2; Number of Cells Forming Lumen/cm^2 (BAEC [4]; Table 4, 100 μM): 39.25 ± 2.17 /cm^2 |
| CC(C)=CCC/C(C)=C/CC/C(C)=C/CC[C@]1(C)CCc2c(C)c(O)cc(C)c2O1 (racemic) [DL-β-Tocotrienol, β-tocotrienol] | inhibited the lumen formation completely; also recorded: exhibit inhibitory action against lumen formation | 0.00 ± 0.00 /cm^2 | ↓↓ | 6.5 | 0.084 ± 0.002 | 0.029 ± 0.004 | 0.39 ± 0.007 | 0.011 ± 0.002 |  |  | 0.042 ± 0.002 | 0.036 ± 0.003 | 0.055 ± 0.005 | 0.039 ± 0.004 | ↓↓ | 89.4 ± 5.1 % of control | 97.8 ± 7.9 % of control | 57.1 ± 5.9 % of control | 5.6 ± 5.4 % of control | 0.0 ± 0.0 % of control | inhibitory action against cell multiplication (BAEC [3]; 10 μM): remarkable inhibitory action |
| CC(C)=CCC/C(C)=C/CC/C(C)=C/CC[C@]1(C)CCc2cc(O)cc(C)c2O1 (racemic) [DL-δ-Tocotrienol, δ-tocotrienol] | inhibited the lumen formation completely; also recorded: exhibit inhibitory action against lumen formation | 0.00 ± 0.00 /cm^2 | ↓↓ | 5.5 | 0.103 ± 0.001 | 0.004 ± 0.000 | 0.003 ± 0.000 | 0.002 ± 0.000 | inhibited lumen formation completely | 0.00 ± 0.00 /cm^2 | 0.040 ± 0.002 | 0.003 ± 0.000 | 0.003 ± 0.000 | 0.003 ± 0.000 | ↓↓ | 93.0 ± 6.8 % of control | 109.4 ± 8.0 % of control | 0.9 ± 1.3 % of control | 5.8 ± 4.5 % of control | 0.4 ± 0.9 % of control | inhibitory action against cell multiplication (BAEC [3]; 10 μM): remarkable inhibitory action |
| Cc1c(C)c2c(c(C)c1O)CC[C@@](C)(CCC[C@H](C)CCC[C@H](C)CCCC(C)C)O2 [α-Tocopherol, α-tocopherol, reference compound] |  |  |  |  |  |  |  |  |  |  |  |  |  |  |  |  |  |  |  |  | inhibition of lumen formation induced by FGF (BAEC [1]; 100 μM + FGF 20 ng/ml): not found; Number of Cells Forming Lumen/cm^2 (BAEC [1]; sample 100 μM + FGF 20 ng/ml): 25.25 ± 2.10 /cm^2; Lumen Formation (BAEC [1]; [11]): →; inhibitory action against cell multiplication (BAEC [3]; 100 μM): does not exhibit inhibitory action; Absorbance (BAEC [3]; 0 hr, sample 100 μM): 0.092 ± 0.003; Absorbance (BAEC [3]; 24 hrs, sample 100 μM): 0.140 ± 0.003; Absorbance (BAEC [3]; 48 hrs, sample 100 μM): 0.268 ± 0.004; Absorbance (BAEC [3]; 96 hrs, sample 100 μM): 0.520 ± 0.012; inhibition of lumen formation (BAEC [4]; 100 μM): did not inhibit lumen formation; Absorbance (BAEC [5]; 0 hr, FGF 20 ng/ml + sample 100 μM): 0.045 ± 0.002; Absorbance (BAEC [5]; 24 hrs, FGF 20 ng/ml + sample 100 μM): 0.080 ± 0.004; Absorbance (BAEC [5]; 48 hrs, FGF 20 ng/ml + sample 100 μM): 0.242 ± 0.014; Absorbance (BAEC [5]; 96 hrs, FGF 20 ng/ml + sample 100 μM): 0.360 ± 0.020; Cell Multiplication (BAEC [5]; [11]): ↑ |
